Source: patent US20230201290A1, “TGF-BETA INHIBITION, AGENTS AND COMPOSITION THEREFOR” (GMP BIOTECHNOLOGY LIMITED, priority 2020, published 2023)
Values after ≈ are worked out from the molar mass of the structure shown. Values joined by “and” are separate entries in the source; they are usually repeats but may differ in a detail not shown here. Equal entries are not always repeated. Where two headings read alike, the source gives them in different places.

Columns and labels:
SARS-COV-2 USA_WA1/2020 [1] = conditions: for Antiviral activity against SARS-CoV-2 (words): Vero 76; for SI=CC50/EC50: SARS-CoV-2; for SI (CC50/EC50): SARS-CoV-2, Vero 76 cells; for EC50: 50% effective antiviral concentration: SARS-CoV-2 USA_WA1/2020, Vero 76, CPE neutral red, day 5
SARS-CoV-2 [2] = conditions: Vero E6, MOI 0.01, 24 h post-infection; cited from earlier work
SARS-CoV-2 [3] = conditions: VeroE6, 2-day incubation; cited from earlier work
falciparum malaria = conditions: cited from earlier work; for recrudescence in a month: 1975, 3-day regimens
vivax malaria = conditions: cited from earlier work; for relapse rate within a month: 1975 comparison with chloroquine
cerebral malaria = conditions: cited from earlier work
TGF-β mRNA = conditions: 100 mg/kg ip daily for 20 days; P<0.01; cited from earlier work
in vitro = conditions: African green monkey
[4] = cited from earlier work
[5] = 500 mg orally, Child B cirrhosis; cited from earlier work
SARS-COV-2 USA_WA1/2020 [6] = experiment: microbe, parasite or virus in culture
C8161 human melanoma = experiment: Orthotopic C8161 human melanoma model
Vero E6 cells = conditions: remdesivir, literature; cited from earlier work
SARS-CoV-2 virus = conditions: higher values with higher multiplicity of infection; read-out: EC50 values for SARS-CoV-2 virus in the literature; cited from earlier work
[7] = healthy subjects; cited from earlier work
Vero 76 cells = conditions: for CC50: 50% cytotoxic concentration of compound without virus added: run alongside SARS-CoV-2 test
[8] = 527 cases of falciparum malaria

C[C@@H]1CC[C@H]2[C@@H](C)C(=O)O[C@@H]3O[C@@]4(C)CC[C@@H]1[C@]32OO4 [Artemisinin]
Antiviral activity against SARS-CoV-2 (words) (SARS-COV-2 USA_WA1/2020 [1]): suppressed SARS-CoV-2 replication | Antiviral activity against SARS-CoV-2 (words) (SARS-COV-2 USA_WA1/2020 [1]; listed as artemisinin): High antiviral activity | anti-SARS-CoV-2 activity by RTPCR method (SARS-CoV-2 [2]): confirmed | anti-SARS-CoV-2 activity by immunostaining for spike protein (SARS-CoV-2 [3]): confirmed | cure of chloroquine-resistant (RI-RIII) cases (falciparum malaria; 143 cases, 3-day regimen oil, oil suspension or water suspension): all patients were cured | Fever clearance time (falciparum malaria; [8]): 30 to 40 h | asexual parasite clearance time (falciparum malaria; [8]): 30 to 50 h | average asexual parasite clearance time (falciparum malaria; 1975, 3-day regimens: artemisinin tablets 2.5 g, chloroquine 1.5 g base): 37 ± 17.8 h | recrudescence in a month (falciparum malaria): All the cases | average parasite clearance time (falciparum malaria; group A: 500 mg daily for 5 days): 34 ± 14 h | average parasite clearance time (falciparum malaria; group B: 100/100/250/250/500 mg escalating): 50 ± 23 h | mean parasite clearance time (falciparum malaria; single 500 mg oral dose, 11 patients): 36 h | recrudescence rate within a month (falciparum malaria; tablets): 85% | average asexual parasite clearance time (vivax malaria; 1511 cases of vivax malaria): 30 to 40 h | average defervescence time (vivax malaria; 1511 cases of vivax malaria): 20 to 30 h | parasite clearance time (vivax malaria; 1975: artemisinin tablets total 3 g, chloroquine total 1.5 g base): 39.6 ± 13.5 h | relapse rate within a month (vivax malaria): 21.4% | mortality rate (cerebral malaria; 141 patients): 7.1% | patients cured (cerebral malaria; 141 patients): 92.9% | average defervescence time (cerebral malaria; across all sites): 34.1 to 56.7 h | average parasite clearance time (cerebral malaria; across all sites): 33.3 to 64.5 h | average time taken to regain consciousness (cerebral malaria; across all sites): 21.5 to 30.8 h | cure rate (cerebral malaria; nasogastric gavage, 36 patients): 91.7% | TGF-β mRNA levels within the tumor (TGF-β mRNA): significantly decreased | CC50 (in vitro): 61 µg/mL (≈ 216 µM) | AUC ([4]; 500 mg after food): 2,092±1,441 ng×ml^−1×h | time at which half of the terminal value was reached ([4]; 500 mg after food): 0.97 ± 0.68 h | maximum concentration of drug in serum (Cmax) ([4]; 500 mg capsules after food, six healthy subjects): 443 ± 224 ng/mL | oral plasma clearance ([4]; 1×250, 2×250, 4×250 mg capsules, eight healthy subjects): about 400 L h-1 | mean oral clearance ([4]; population PK, 15 subjects, 160 and 500 mg): 417 L/h | terminal elimination half-life ([4]; population PK, 15 subjects): 1.93 h | volume of distribution ([4]; population PK, 15 subjects): 1210 L | mean induction time of own metabolism ([4]; semiphysiological autoinduction model, saliva): 1.9 h | elimination half-life, log-linear regression [5]: 4 (±1.3) h | elimination half-life, non-linear regression, one-compartment model [5]: 2.4 ± 0.9 h | mean (±SD) area under the concentration time curve [5]: 2365 (±1761) h ng/ml | mean (±SD) clearance [5]: 382 (±303) L/h | EC50 (SARS-COV-2 USA_WA1/2020 [6]; Severe acute respiratory syndrome coronavirus 2, Vero 76, 120 h, read-out: EC50 (50% effective antiviral concentration)): 0.45 µg/mL | EC50 (SARS-COV-2 USA_WA1/2020 [6]; Severe acute respiratory syndrome coronavirus 2, Vero 76, 120 h, read-out: EC50: 50% effective antiviral concentration): 0.45 µg/mL | EC50 (SARS-COV-2 USA_WA1/2020 [6]; Severe acute respiratory syndrome coronavirus 2, Vero 76, read-out: EC50 (value in brackets)): 1590 nM

CN(C)/N=N/c1[nH]cnc1C(N)=O [DTIC, dacarbazine]
Tumor growth suppressed versus control group 1 on day 42 (C8161 human melanoma; group 3: 1 mg/kg ip four times/week): −2% | Tumor growth suppressed versus control group 1 on day 42 (C8161 human melanoma; group 4: 10 mg/kg ip four times/week): 78%

CCC(CC)COC(=O)[C@H](C)N[P@](=O)(OC[C@H]1O[C@@](C#N)(c2ccc3c(N)ncnn23)[C@H](O)[C@@H]1O)Oc1ccccc1 [Remdesivir]
CC50 (Vero E6 cells): > 200000 nM

CCN(CC)CCCC(C)Nc1ccnc2cc(Cl)ccc12 (stereo not drawn) [chloroquine]
recrudescence in a month (falciparum malaria): 50% | relapse rate within a month (vivax malaria): no cases of relapse

CCN(CCO)CCCC(C)Nc1ccnc2cc(Cl)ccc12 (stereo not drawn) [hydroxychloroquine]
EC50 (SARS-CoV-2 virus): 720 to 17300 nM

Clc1ccc2c(N3CCN(CCCN4CCN(c5ccnc6cc(Cl)ccc56)CC4)CC3)ccnc2c1 [piperaquine]
slope of plasma concentration vs placebo-adjusted ΔQTcF [7]: 0.047 ms per ng ml-1

AGCCCTGTATACGAC [FS (13,458-13,472)] (antisense AGCCCTGTAGACGAC; phosphorothioate backbone, further chemistry not given here)
SI=CC50/EC50 (SARS-COV-2 USA_WA1/2020 [1]): 53 | SI (CC50/EC50) (SARS-COV-2 USA_WA1/2020 [1]): 53 | EC50: 50% effective antiviral concentration (SARS-COV-2 USA_WA1/2020 [1]): 5.2 µg/mL | Antiviral activity against SARS-CoV-2 (words) (SARS-COV-2 USA_WA1/2020 [1]): High antiviral activity | Cytotoxicity (Vero 76 cells; SARS-CoV-2 test): Cytotoxicity was observed | CC50: 50% cytotoxic concentration of compound without virus added (Vero 76 cells): 430 µg/mL

AGCCCTGTATACGAC [FS (13.458-13.274)MOE] (2'-MOE modified, pattern not given here)
SI=CC50/EC50 (SARS-COV-2 USA_WA1/2020 [1]): >40 | EC50: 50% effective antiviral concentration (SARS-COV-2 USA_WA1/2020 [1]): 25 µg/mL | CC50: 50% cytotoxic concentration of compound without virus added (Vero 76 cells): >1000 µg/mL

CATTGTAGATGTCAAAAGCC (phosphorothioate backbone, further chemistry not given here) [FS-2a (13539-13558)]
SI=CC50/EC50 (SARS-COV-2 USA_WA1/2020 [1]): >59 | SI (CC50/EC50) (SARS-COV-2 USA_WA1/2020 [1]): >59 | EC50: 50% effective antiviral concentration (SARS-COV-2 USA_WA1/2020 [1]): 17 µg/mL | Antiviral activity against SARS-CoV-2 (words) (SARS-COV-2 USA_WA1/2020 [1]): High antiviral activity | CC50 (Vero 76 cells): > 1000 µg/mL | CC50: 50% cytotoxic concentration of compound without virus added (Vero 76 cells): >1000 µg/mL

CGTTTAGAGAACAGATCTAC [TRS2-2 53-72 MOE] (2'-MOE modified, pattern not given here)
SI=CC50/EC50 (SARS-COV-2 USA_WA1/2020 [1]): >16 | SI (CC50/EC50) (SARS-COV-2 USA_WA1/2020 [1]): >16 | EC50: 50% effective antiviral concentration (SARS-COV-2 USA_WA1/2020 [1]): 62 µg/mL | CC50 (Vero 76 cells): > 1000 µg/mL | CC50: 50% cytotoxic concentration of compound without virus added (Vero 76 cells): >1000 µg/mL

CGTTTAGAGAACAGATCTAC [TRS2-2 53-72] (phosphorothioate backbone, further chemistry not given here)
SI=CC50/EC50 (SARS-COV-2 USA_WA1/2020 [1]): >530 | SI (CC50/EC50) (SARS-COV-2 USA_WA1/2020 [1]): >530 | EC50: 50% effective antiviral concentration (SARS-COV-2 USA_WA1/2020 [1]): 1.9 µg/mL | Antiviral activity against SARS-CoV-2 (words) (SARS-COV-2 USA_WA1/2020 [1]): High antiviral activity | CC50 (Vero 76 cells): > 1000 µg/mL | CC50: 50% cytotoxic concentration of compound without virus added (Vero 76 cells): >1000 µg/mL

CTCCCTCATGGTGGCAGTTGA (chemistry not given here) [RSV, reference compound]
SI=CC50/EC50 (SARS-COV-2 USA_WA1/2020 [1]): >1.6 | SI (CC50/EC50) (SARS-COV-2 USA_WA1/2020 [1]): >1.6 | EC50: 50% effective antiviral concentration (SARS-COV-2 USA_WA1/2020 [1]): 620.0 µg/mL and 620 µg/mL | Antiviral activity against SARS-CoV-2 (words) (SARS-COV-2 USA_WA1/2020 [1]): did not demonstrate any suppression | CC50 (Vero 76 cells): > 1000 µg/mL

GGTAGGTAAAAACCTAATAT [5TERM (1-20) MOE] (2'-MOE modified, pattern not given here)
SI (CC50/EC50) (SARS-CoV (Urbani strain)): >2.6 | SI=CC50/EC50 (SARS-COV-2 USA_WA1/2020 [1]): 120 | SI (CC50/EC50) (SARS-COV-2 USA_WA1/2020 [1]): 120 | EC50: 50% effective antiviral concentration (SARS-COV-2 USA_WA1/2020 [1]): 4.9 µg/mL | Antiviral activity against SARS-CoV-2 (words) (SARS-COV-2 USA_WA1/2020 [1]): High antiviral activity | Cytotoxicity (Vero 76 cells): Cytotoxicity was observed | Cytotoxicity (Vero 76 cells; SARS-CoV-2 test): Cytotoxicity was observed | CC50: 50% cytotoxic concentration of compound without virus added (Vero 76 cells): 610 µg/mL

GGTAGGTAAAAACCTAATAT [5TERM (1-20)] (phosphorothioate backbone, further chemistry not given here)
SI=CC50/EC50 (SARS-COV-2 USA_WA1/2020 [1]): >140 | SI (CC50/EC50) (SARS-COV-2 USA_WA1/2020 [1]): >140 | EC50: 50% effective antiviral concentration (SARS-COV-2 USA_WA1/2020 [1]): 7.1 µg/mL | Antiviral activity against SARS-CoV-2 (words) (SARS-COV-2 USA_WA1/2020 [1]): High antiviral activity | CC50 (Vero 76 cells): > 1000 µg/mL | CC50: 50% cytotoxic concentration of compound without virus added (Vero 76 cells): >1000 µg/mL

GTTCGTTTAGAGAACAGATC (phosphorothioate backbone, 5-methyl C, further chemistry not given here) [TRS1 (53-72)]
SI=CC50/EC50 (SARS-COV-2 USA_WA1/2020 [1]): 95 | SI (CC50/EC50) (SARS-COV-2 USA_WA1/2020 [1]): 95 | EC50: 50% effective antiviral concentration (SARS-COV-2 USA_WA1/2020 [1]): 7.6 µg/mL | Antiviral activity against SARS-CoV-2 (words) (SARS-COV-2 USA_WA1/2020 [1]): High antiviral activity | Cytotoxicity (Vero 76 cells; SARS-CoV-2 test): Cytotoxicity was observed | CC50: 50% cytotoxic concentration of compound without virus added (Vero 76 cells): 720 µg/mL

TAAAGTTCGTTTAGAGAACAG (phosphorothioate backbone, further chemistry not given here) [TRS2 (56-76)]
SI (CC50/EC50) (SARS-CoV (Urbani strain)): >2.9 | SI=CC50/EC50 (SARS-COV-2 USA_WA1/2020 [1]): >14 | SI (CC50/EC50) (SARS-COV-2 USA_WA1/2020 [1]): >14 | EC50: 50% effective antiviral concentration (SARS-COV-2 USA_WA1/2020 [1]): 73 µg/mL | CC50 (Vero 76 cells): > 1000 µg/mL | Cytotoxicity (Vero 76 cells): Cytotoxicity was observed | CC50: 50% cytotoxic concentration of compound without virus added (Vero 76 cells): >1000 µg/mL
